Conditions: Liquid, Vibrating tube method

CCOC(=O)C(C)O (racemic) [DL-ethyl lactate]
mass density [kg/m3]
Conditions	100 kPa	2500 kPa	5000 kPa	7500 kPa	10000 kPa	20000 kPa	30000 kPa	40000 kPa	50000 kPa	60000 kPa
283.15 K	1045.06	1046.77	1048.51	1050.24	1051.88	1058.39	1064.45	1070.13	1075.5	1080.55
288.15 K	1039.64	1041.39	1043.21	1044.99	1046.74	1053.28	1059.46	1065.24	1070.74	1076.04
293.15 K	1034.25	1036.05	1037.86	1039.7	1041.5	1048.3	1054.58	1060.54	1066.26	1071.55
298.15 K	1028.78	1030.66	1032.56	1034.43	1036.23	1043.21	1049.76	1055.69	1061.53	1066.96
303.15 K	1023.32	1025.21	1027.24	1029.11	1031	1038.26	1044.91	1051.19	1056.95	1062.52
308.15 K	1017.84	1019.82	1021.87	1023.84	1025.7	1033.08	1039.92	1046.28	1052.19	1057.98
313.15 K	1012.33	1014.31	1016.42	1018.41	1020.39	1027.93	1034.97	1041.52	1047.69	1053.46
318.15 K	1006.72	1008.86	1011.01	1013.1	1015.13	1022.87	1030.04	1036.74	1042.96	1048.96
323.15 K	1001.23	1003.36	1005.56	1007.68	1009.78	1017.76	1025.13	1031.99	1038.42	1044.49
328.15 K	995.54	997.8	1000.11	1002.34	1004.46	1012.65	1020.17	1027.16	1033.75	1039.99
333.15 K	989.91	992.19	994.55	996.87	999.06	1007.62	1015.4	1022.5	1029.24	1035.71
338.15 K	984.3	986.71	989.18	991.49	993.65	1002.34	1010.27	1017.75	1024.55	1031.04

CCCCOC(=O)C(C)O (stereo not given) [butyl 2-hydroxypropanoate]
mass density [kg/m3]
Conditions	100 kPa	2500 kPa	5000 kPa	7500 kPa	10000 kPa	20000 kPa	30000 kPa	40000 kPa	50000 kPa	60000 kPa
283.15 K	992.75	994.4	996.14	997.77	999.41	1005.87	1011.69	1017.42	1022.85	1027.71
288.15 K	987.86	989.52	991.32	993.09	994.7	1001.18	1007.12	1012.83	1018.14	1023.26
293.15 K	982.96	984.69	986.5	988.29	990.02	996.69	1002.96	1008.73	1014.33	1019.37
298.15 K	977.96	979.83	981.74	983.49	985.26	992.04	998.37	1004.29	1009.82	1015.17
303.15 K	973.09	974.98	976.81	978.72	980.54	987.67	993.96	1000.06	1005.69	1011.27
308.15 K	967.74	970.01	971.95	973.85	975.59	982.84	989.43	995.62	1001.41	1007.05
313.15 K	963.05	965.11	967.03	969.06	970.96	978.27	985.03	991.43	997.35	1002.99
318.15 K	957.98	960.06	962.11	964.16	966.04	973.62	980.42	986.96	993.12	998.83
323.15 K	952.44	954.61	956.73	958.74	960.79	968.64	975.86	982.37	988.47	994.3
328.15 K	947.31	949.44	951.63	953.79	955.86	963.73	971.08	977.8	984.21	990.17
333.15 K	942.28	944.52	946.72	948.91	951.02	959.28	966.7	973.8	980.2	986.43
338.15 K	937.09	939.39	941.78	943.99	946.05	954.42	962.07	969.19	975.64	982.05

COC(=O)C(C)O (stereo not given) [methyl 2-hydroxypropanoate]
mass density [kg/m3]
Conditions	100 kPa	2500 kPa	5000 kPa	7500 kPa	10000 kPa	20000 kPa	30000 kPa	40000 kPa	50000 kPa	60000 kPa
283.15 K	1104.41	1106	1107.57	1109.14	1110.68	1116.59	1122.23	1127.45	1132.48	1137.4
288.15 K	1098.86	1100.48	1102.13	1103.77	1105.31	1111.55	1117.27	1122.78	1127.98	1132.78
293.15 K	1093.31	1094.99	1096.72	1098.35	1099.92	1106.2	1112.08	1117.65	1122.93	1128.01
298.15 K	1087.76	1089.42	1091.21	1092.88	1094.57	1101.03	1107.23	1112.83	1118.24	1123.43
303.15 K	1082.13	1083.92	1085.75	1087.5	1089.23	1095.82	1101.97	1107.9	1113.44	1118.66
308.15 K	1076.53	1078.32	1080.19	1082	1083.79	1090.68	1097.03	1102.99	1108.63	1114.02
313.15 K	1070.85	1072.76	1074.65	1076.52	1078.39	1085.28	1091.84	1097.99	1103.74	1109.24
318.15 K	1065.11	1067.04	1068.97	1070.94	1072.77	1080.09	1086.77	1093.08	1098.93	1104.49
323.15 K	1059.39	1061.4	1063.43	1065.44	1067.34	1074.67	1081.41	1088	1094.04	1099.76
328.15 K	1053.63	1055.7	1057.77	1059.74	1061.8	1069.41	1076.5	1083.15	1089.4	1095.07
333.15 K	1047.83	1049.97	1052.16	1054.23	1056.23	1064.05	1071.33	1078.01	1084.39	1090.37
338.15 K	1042	1044.15	1046.35	1048.52	1050.63	1058.63	1066.13	1073.12	1079.74	1085.76

Reference: the NIST ThermoML archive (doi:10.1016/j.jct.2012.11.002)
